Activity calls are given as the source filed them.
Columns and labels:
[1] = target: T1, Low molecular weight phosphotyrosine protein phosphatase (Homo sapiens, UniProt P24666); assay type: functional; conditions: read-out: IC50_Mean;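 further: Dose-response confirmation assay measuring inhibition of LMPTP enzyme activity by fluorescence intensity read-out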
T1 sequence (P24666 whole entry): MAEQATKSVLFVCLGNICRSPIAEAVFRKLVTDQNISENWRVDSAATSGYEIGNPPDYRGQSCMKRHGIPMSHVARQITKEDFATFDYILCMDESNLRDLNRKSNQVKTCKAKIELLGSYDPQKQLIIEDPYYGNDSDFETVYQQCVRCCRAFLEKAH

[2] = target: T1, Low molecular weight phosphotyrosine protein phosphatase; assay: LMPTP phosphatase inhibitors, dose response, biochemical, OMFP substrate, fluorescence intensity, set 2 (AID 743307); assay type: functional
[3] = target: T1, Low molecular weight phosphotyrosine protein phosphatase; assay: LMPTP phosphatase inhibitors, colorimetric pNPP readout, dose response, orthogonal assay, biochemical, absorbance, pNPP substrate, LMPTP-A isoform, set 2 (AID 743308); assay type: functional
[4] = inhibitors of Vif binding to APOBEC3G peptide, primary screen, biochemical, TR-FRET, GST-Vif 1-94, biotin-A3G peptide, dose response retest (AID 1117319); assay type: functional;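 further: TR-FRET signal of purified GST-Vif binding a biotinylated A3G peptide; inhibitors lower the FRET signal by blocking Vif and A3G binding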
[5] = target: T2, Methionyl-tRNA synthetase, putative (Trypanosoma brucei brucei, UniProt Q38C91); assay type: functional, Trypanosoma brucei brucei strain 927/4 GUTat10.1
T2 sequence (Q38C91 whole entry): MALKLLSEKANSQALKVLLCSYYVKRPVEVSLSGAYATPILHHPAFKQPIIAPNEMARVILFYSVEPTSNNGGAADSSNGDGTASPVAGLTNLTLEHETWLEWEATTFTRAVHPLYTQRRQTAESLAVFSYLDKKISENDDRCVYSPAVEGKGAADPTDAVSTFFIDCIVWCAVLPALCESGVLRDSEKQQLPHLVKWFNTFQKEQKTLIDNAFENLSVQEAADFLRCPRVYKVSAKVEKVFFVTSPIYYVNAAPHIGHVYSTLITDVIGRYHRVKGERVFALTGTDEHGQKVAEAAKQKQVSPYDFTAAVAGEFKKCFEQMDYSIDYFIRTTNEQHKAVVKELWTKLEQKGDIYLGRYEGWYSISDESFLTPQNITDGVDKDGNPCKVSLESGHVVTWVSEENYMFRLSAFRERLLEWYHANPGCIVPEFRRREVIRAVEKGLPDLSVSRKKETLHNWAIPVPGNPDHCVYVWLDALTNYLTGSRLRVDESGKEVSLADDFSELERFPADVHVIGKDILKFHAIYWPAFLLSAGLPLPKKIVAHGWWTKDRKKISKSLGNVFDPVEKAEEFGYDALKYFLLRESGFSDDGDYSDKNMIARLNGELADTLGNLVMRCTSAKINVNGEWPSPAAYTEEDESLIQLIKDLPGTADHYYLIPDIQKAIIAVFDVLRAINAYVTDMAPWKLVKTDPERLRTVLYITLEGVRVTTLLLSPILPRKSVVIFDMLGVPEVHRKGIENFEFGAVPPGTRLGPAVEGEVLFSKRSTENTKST

[6] = Counterscreen for inhibitors of Trypanosoma brucei methionyl tRNA synthetase (MetRS): Luminescence-based cell-based high throughput dose response assay to identify compounds that are cytotoxic to Jurkat human T lymphocyte cells.; assay type: functional
[7] = target: T2, Methionyl-tRNA synthetase, putative; assay type: functional, Trypanosoma brucei brucei strain 927/4 GUTat10.1; remark: listed apart in the source
[8] = Late stage counterscreen for inhibitors of Trypanosoma brucei methionyl tRNA synthetase (MetRS): Luminescence-based cell-based high throughput dose response assay to identify compounds that are cytotoxic to Jurkat human T lymphocyte cells.; assay type: functional
[9] = HIV Env cell-cell fusion inhibitors, dose response, HIV entry, plate reader, dry powder (AID 687023); assay type: functional, cell-based
[10] = luciferase signal loss, tTA control fusion, HeLa F-luc tTA cells, dry powder, counter-screen for HIV Env fusion inhibitor project, dose response (AID 687021); assay type: functional, cell-based
[11] = CEM21 cell cytotoxicity, dose response, cytotoxicity control, plate reader, dry powder (AID 687026); assay type: functional, cell-based
[12] = target: Glutathione-S-transferase (Schistosoma japonicum, UniProt Q26513); assay: biotin-GST/anti-GST TR-FRET signal inhibitors, dose response, artefact control for Vif-APOBEC3G degradation inhibitor project, biochemical (AID 1117362); assay type: functional
Chain of Glutathione-S-transferase (Q26513 whole entry): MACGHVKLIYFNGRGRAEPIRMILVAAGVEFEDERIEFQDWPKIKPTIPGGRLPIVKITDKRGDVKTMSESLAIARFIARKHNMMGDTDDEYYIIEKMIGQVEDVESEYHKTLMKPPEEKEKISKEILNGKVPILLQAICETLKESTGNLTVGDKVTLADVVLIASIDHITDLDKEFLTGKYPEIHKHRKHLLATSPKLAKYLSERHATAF

[13] = miR-122 activators in hepatoma reporter cells, dose response, cell-based, Huh7 psiCHECK-miR122, Renilla luciferase, cherry-picked (AID 651956); assay type: functional;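 further: huh7 hepatoma cells stably carrying a psiCHECK-2 miR-122 sensor plasmid; renilla luciferase signal reporting endogenous miR-122 activity after 48 h compound exposure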
[14] = inhibitors of PGC1a acetylation in cells, dose response, cell-based, cherry-picked samples (AID 720514); assay type: functional;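 further: potency may reflect raised or lowered acetylation signal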
[15] = HEK293T cytotoxicity, dose response, cytotoxicity control for miR-122 modulator project, cell-based, inhibitor set, cherry-pick, set 2 (AID 720697); assay type: functional
[16] = HEK293T cytotoxicity, dose response, cytotoxicity control for miR-122 modulator project, cell-based, activator set, cherry-pick (AID 720690); assay type: functional;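 further: HEK293T human cells scored for general mammalian cytotoxicity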
[17] = inhibitors of non-replicating M. tuberculosis, dose response, luciferase, dry powder (AID 651619); assay type: functional; conditions: Mycobacterium tuberculosis
[18] = inhibitors of non-replicating M. tuberculosis, dose response, luciferase, dry powder (AID 651620); assay type: functional; conditions: Mycobacterium tuberculosis
[19] = Late-stage results from the probe development effort to identify antagonists of arginine vasopressin receptor 1a (AVPR1a): fluorescence-based cell-based dose response AVPR1a inhibition assay.; assay type: functional
Vasopressin V1b receptor = Vasopressin V1b receptor (Homo sapiens, UniProt P47901); assay: Late-stage results from the probe development effort to identify antagonists of arginine vasopressin receptor 1a (AVPR1a): fluorescence-based cell-based dose response AVPR1b inhibition counterscreen assay.; assay type: functional
Chain of Vasopressin V1b receptor (P47901 whole entry): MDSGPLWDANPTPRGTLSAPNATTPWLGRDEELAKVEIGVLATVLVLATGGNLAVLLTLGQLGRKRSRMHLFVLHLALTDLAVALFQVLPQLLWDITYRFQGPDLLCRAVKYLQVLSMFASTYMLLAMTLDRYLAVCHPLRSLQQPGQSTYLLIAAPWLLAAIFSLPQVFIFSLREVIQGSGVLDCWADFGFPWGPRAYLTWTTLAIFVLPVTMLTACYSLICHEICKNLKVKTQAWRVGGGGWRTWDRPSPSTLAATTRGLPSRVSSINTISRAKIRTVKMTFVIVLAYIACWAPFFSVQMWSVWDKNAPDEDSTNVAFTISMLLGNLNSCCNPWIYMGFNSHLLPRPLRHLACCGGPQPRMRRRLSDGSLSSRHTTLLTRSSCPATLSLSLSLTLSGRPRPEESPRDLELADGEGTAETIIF

Vasopressin V2 receptor = Vasopressin V2 receptor (Homo sapiens, UniProt P30518); assay: Late-stage results from the probe development effort to identify antagonists of arginine vasopressin receptor 1a (AVPR1a): fluorescence-based cell-based dose response AVPR2 inhibition counterscreen assay.; assay type: functional
Chain of Vasopressin V2 receptor (P30518 whole entry): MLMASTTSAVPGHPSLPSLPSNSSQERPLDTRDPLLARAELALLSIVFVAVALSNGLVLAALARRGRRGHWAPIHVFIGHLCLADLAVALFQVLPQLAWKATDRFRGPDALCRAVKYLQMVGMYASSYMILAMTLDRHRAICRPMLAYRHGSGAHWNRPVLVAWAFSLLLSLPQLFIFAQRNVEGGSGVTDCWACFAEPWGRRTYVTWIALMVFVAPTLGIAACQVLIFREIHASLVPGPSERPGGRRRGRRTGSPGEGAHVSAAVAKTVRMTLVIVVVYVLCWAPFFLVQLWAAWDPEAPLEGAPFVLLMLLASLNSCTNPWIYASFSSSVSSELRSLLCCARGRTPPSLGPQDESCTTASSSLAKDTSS

[20] = Late-stage results from the probe development effort to identify antagonists of arginine vasopressin receptor 1a (AVPR1a): fluorescence-based cell-based dose response OXTR inhibition counterscreen assay.; assay type: functional
[21] = NIH-3T3 fibroblast cytotoxicity, dose response, cytotoxicity control, cell-based, fluorescence, Alamar Blue, secondary assay (AID 2327); assay type: functional;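 further: NIH-3T3 mouse fibroblasts cultured with fluconazole at 8 µg/mL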
Leucine aminopeptidase = target: T3, Leucine aminopeptidase (Plasmodium falciparum 3D7, UniProt Q8IL11); assay: P. falciparum M17LAP inhibitors, primary screen, biochemical, fluorogenic H-Leu-NHMec substrate, 1536-well (AID 1619); assay type: functional
T3 sequence (Q8IL11 whole entry): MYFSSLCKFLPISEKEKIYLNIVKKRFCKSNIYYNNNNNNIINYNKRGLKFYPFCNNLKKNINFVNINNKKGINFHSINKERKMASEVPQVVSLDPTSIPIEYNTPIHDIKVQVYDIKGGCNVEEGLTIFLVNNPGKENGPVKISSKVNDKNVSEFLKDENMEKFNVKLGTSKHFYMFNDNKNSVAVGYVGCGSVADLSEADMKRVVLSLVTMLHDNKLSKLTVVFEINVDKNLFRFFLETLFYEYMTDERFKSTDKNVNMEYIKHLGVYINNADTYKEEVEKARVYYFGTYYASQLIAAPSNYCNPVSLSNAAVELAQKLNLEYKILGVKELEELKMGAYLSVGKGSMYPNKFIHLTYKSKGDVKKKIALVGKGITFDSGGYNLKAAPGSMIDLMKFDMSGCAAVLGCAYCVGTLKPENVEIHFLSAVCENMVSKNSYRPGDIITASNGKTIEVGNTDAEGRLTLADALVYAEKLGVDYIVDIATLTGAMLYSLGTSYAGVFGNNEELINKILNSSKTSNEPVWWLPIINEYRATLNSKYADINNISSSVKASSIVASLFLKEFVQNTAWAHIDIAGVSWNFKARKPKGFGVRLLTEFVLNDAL

[22] = C. albicans growth with fluconazole, confirmation, fluorescence, retest (AID 2467); assay type: functional, cell-based
[23] = target: T4, Mannose-6-phosphate isomerase (Homo sapiens, UniProt P34949); assay: human PMI inhibitors, high substrate, primary screen, biochemical, fluorescence intensity, high mannose 6-phosphate (AID 1220)
T4 sequence (P34949 whole entry): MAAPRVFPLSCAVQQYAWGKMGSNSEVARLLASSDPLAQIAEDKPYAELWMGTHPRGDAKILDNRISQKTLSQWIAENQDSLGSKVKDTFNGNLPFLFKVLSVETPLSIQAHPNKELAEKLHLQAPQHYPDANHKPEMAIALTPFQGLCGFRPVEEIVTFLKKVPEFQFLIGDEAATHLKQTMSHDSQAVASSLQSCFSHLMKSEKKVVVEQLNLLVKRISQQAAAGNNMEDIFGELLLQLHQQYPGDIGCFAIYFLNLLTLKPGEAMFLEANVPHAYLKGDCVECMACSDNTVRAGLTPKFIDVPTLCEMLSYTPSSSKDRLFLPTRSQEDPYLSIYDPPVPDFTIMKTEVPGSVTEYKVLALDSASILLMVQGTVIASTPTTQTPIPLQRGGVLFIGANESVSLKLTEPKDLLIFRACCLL

[24] = target: Glucose-6-phosphate 1-dehydrogenase (Homo sapiens, UniProt P11413); assay: human G6PD enzyme inhibitors, dose response, selectivity assay for P. falciparum G6PD inhibitor project, biochemical, fluorescence (AID 504792); assay type: functional
Chain of Glucose-6-phosphate 1-dehydrogenase (P11413 whole entry): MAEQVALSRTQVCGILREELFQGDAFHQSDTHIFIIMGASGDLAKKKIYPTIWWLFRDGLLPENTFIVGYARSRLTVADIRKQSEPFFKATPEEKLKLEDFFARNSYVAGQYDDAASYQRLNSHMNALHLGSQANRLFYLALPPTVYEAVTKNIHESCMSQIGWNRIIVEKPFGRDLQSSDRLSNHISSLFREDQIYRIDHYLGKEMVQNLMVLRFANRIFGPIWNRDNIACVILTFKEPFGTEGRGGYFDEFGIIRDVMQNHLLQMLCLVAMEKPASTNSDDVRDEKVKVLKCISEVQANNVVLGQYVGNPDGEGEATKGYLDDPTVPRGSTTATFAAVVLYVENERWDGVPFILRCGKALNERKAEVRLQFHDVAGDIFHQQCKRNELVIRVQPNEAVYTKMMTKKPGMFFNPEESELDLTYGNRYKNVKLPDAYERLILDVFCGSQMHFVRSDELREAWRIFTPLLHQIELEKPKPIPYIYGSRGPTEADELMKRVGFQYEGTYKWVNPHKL

Vero = Vero cell cytotoxicity, cytotoxicity control for flavivirus capping enzyme inhibitors (AID 588742); assay type: functional; conditions: Chlorocebus sabaeus
Genome polyprotein = Genome polyprotein (dengue virus type 2, UniProt P29990); assay: Dengue-2 NS5 methyltransferase inhibitors, primary screen, biochemical, confirmation dose response (AID 588689); assay type: functional
Chain of Genome polyprotein (P29990 2492-3391 limits assumed): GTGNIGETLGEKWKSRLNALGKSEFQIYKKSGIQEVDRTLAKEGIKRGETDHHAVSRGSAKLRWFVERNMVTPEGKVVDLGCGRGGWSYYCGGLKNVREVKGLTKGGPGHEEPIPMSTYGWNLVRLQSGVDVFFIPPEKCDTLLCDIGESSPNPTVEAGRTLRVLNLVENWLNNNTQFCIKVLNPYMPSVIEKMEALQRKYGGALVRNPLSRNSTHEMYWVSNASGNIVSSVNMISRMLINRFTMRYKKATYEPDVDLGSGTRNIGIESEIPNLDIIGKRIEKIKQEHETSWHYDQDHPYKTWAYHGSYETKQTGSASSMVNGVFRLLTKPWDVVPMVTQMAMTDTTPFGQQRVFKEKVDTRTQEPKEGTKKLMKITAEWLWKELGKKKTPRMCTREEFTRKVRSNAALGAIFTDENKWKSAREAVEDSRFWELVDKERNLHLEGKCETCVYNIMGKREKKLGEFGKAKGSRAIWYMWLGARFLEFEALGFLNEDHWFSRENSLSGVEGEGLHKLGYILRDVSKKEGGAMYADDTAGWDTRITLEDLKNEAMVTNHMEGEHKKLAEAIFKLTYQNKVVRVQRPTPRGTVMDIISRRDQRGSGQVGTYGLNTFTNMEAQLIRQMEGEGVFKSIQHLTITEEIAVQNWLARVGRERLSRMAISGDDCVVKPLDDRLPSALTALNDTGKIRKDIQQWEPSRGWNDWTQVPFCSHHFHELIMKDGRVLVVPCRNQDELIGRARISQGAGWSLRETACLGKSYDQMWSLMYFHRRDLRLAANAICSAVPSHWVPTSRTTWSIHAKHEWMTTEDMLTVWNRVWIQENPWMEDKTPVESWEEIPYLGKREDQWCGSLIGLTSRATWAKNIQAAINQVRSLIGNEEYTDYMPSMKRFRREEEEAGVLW

Protein Tat = target: T5, Protein Tat (Human immunodeficiency virus type 1 group M subtype B (isolate HXB2)(HIV-1), UniProt P04608); assay type: functional;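 further: tat binding to TAR RNA read out by fluorescence polarization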
T5 sequence (P04608 whole entry): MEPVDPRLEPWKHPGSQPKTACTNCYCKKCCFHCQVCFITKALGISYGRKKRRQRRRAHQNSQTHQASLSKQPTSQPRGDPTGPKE

[25] = THP-1 cell cytotoxicity, dose response, cytotoxicity control for Vif-APOBEC3G degradation inhibitor project, THP-1 cells (AID 1117359); assay type: functional; conditions: Human immunodeficiency virus 1, THP-1
[26] = target: RNA-editing ligase 1, mitochondrial (Trypanosoma brucei brucei, UniProt P86926); assay: TbREL1 ligase inhibitors, dose response, biochemical, fluorescence, Trypanosoma brucei (AID 1117295); assay type: functional
Chain of RNA-editing ligase 1, mitochondrial (P86926 whole entry): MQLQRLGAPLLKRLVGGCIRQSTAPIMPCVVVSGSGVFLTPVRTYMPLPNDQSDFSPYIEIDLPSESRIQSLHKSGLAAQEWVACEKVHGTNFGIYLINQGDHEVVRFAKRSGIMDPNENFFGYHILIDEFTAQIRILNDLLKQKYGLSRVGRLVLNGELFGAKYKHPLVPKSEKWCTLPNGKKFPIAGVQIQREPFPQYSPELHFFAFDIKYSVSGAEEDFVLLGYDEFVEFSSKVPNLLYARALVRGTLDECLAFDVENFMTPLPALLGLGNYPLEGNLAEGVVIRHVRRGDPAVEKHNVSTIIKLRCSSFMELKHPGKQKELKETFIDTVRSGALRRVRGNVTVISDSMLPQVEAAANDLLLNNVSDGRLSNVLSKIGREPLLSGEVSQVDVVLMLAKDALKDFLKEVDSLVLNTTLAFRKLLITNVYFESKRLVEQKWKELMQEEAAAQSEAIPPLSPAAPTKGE

[27] = P. falciparum Dd2 growth inhibitors, dose response, SYBR Green, dry powder samples, set 9 (AID 1159568); assay type: functional, cell-based
[28] = target: Metabotropic glutamate receptor 7 (Homo sapiens, UniProt Q14831); assay: mGlu7 positive allosteric modulators, dose response, cell-based, calcium mobilization, Galpha15 (AID 743384); assay type: functional
Chain of Metabotropic glutamate receptor 7 (Q14831 whole entry): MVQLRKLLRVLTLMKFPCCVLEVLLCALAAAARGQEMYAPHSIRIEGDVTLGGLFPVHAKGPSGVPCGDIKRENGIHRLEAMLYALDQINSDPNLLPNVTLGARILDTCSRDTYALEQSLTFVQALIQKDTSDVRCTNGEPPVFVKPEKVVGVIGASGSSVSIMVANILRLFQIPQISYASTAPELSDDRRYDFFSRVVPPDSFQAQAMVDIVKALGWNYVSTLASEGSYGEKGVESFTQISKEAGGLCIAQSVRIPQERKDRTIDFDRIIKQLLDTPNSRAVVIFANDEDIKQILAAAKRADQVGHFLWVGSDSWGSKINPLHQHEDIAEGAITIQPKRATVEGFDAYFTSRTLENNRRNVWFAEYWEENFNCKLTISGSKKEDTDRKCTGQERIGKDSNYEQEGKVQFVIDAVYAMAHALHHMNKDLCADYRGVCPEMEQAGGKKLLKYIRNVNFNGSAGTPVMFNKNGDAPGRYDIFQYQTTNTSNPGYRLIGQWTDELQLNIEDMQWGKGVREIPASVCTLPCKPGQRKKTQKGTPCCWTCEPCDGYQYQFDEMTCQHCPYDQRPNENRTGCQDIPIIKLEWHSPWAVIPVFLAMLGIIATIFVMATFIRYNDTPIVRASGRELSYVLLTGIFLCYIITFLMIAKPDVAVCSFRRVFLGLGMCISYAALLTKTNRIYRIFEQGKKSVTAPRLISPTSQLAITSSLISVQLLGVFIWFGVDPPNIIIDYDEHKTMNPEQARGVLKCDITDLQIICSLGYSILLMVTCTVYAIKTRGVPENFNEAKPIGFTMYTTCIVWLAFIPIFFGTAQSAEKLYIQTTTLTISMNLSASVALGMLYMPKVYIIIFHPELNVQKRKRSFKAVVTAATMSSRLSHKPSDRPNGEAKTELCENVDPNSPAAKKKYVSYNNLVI

[29] = A375 melanoma cell viability loss, dose response, counter-screen for MITF inhibitor project, CellTiter-Glo luminescence, dry powder, set 4 (AID 624364); assay type: functional, cell-based; conditions: A-375;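 further: A375 melanoma cells are MITF independent so this is a counter screen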
[30] = A375 melanoma cell cytotoxicity, dose response, counter-screen for MITF inhibitor project, CellTiter-Glo luminescence, dry powder, set 2 (AID 624489); assay type: functional, cell-based; conditions: A-375;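 further: actives are compounds lowering A375 viability meaning general cytotoxicity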

SMILES: c1ccc(-c2nc(NC3CCCC3)c3ccccc3n2)cc1
- IC50 [1]: 10 µM (active)
- IC50 [2]: 21.1 µM (inactive)
- IC50 [3]: > 80 µM (inactive)

SMILES: Cc1ccc(C(=O)N2CCN(c3ccccc3)CC2)cc1C
- IC50 [4]: > 100 µM (active)

SMILES: O=C1CC(SCc2nc3ccccc3[nH]2)C(=O)N1c1cccc(Cl)c1 (stereo unspecified)
- IC50 [5]: 3.81 µM (active)
- IC50 [6]: 65 µM (inactive)
- IC50 [7]: 2.6 µM (active)
- IC50 [8]: > 83.3 µM (inactive)

SMILES: COC(=O)COc1ccc(S(=O)(=O)NCc2ccncc2)cc1
- AC50 [9]: 20.7 µM (active)
- AC50 [10]: > 70 µM (inactive)
- AC50 [11]: > 70 µM (inactive)

SMILES: CCOC(=O)C1CCCC12Nc1cccc3cccc(c13)N2 (stereo unspecified)
- IC50 [12]: > 100 µM (active)

SMILES: COc1ccc(C#Cc2ccc([C@@H]3[C@H](CO)N4CCCCN(C(=O)Nc5ccccc5)C[C@@H]34)cc2)cc1
- AC50 [13]: 7.42 µM (active)
- AC50 [14]: 9.62 µM (active)
- AC50 [15]: 0.405 µM (active)
- AC50 [16]: 7.77 µM (active)

SMILES: c1ccc(-c2nnc(SCC3CC3)o2)cc1
- IC90 [17]: 2 µM (active)
- IC90 [18]: 2 µM (active)

SMILES: COc1ccccc1N(CC1CC1)C(=O)N1CCN(c2ccccc2C)CC1
- IC50 [19]: 0.292 µM (active)
- IC50 (Vasopressin V1b receptor): 17.9 µM (inactive)
- IC50 (Vasopressin V2 receptor): 12.3 µM (inactive)
- IC50 [20]: 12.3 µM (inactive)

SMILES: CC/N=c1\scc(C)n1/N=C/c1ccc(O)c(O)c1O
- EC50 [21]: > 150 µM (inactive)
- IC50 (Leucine aminopeptidase): 82.3 µM (active)
- EC50 [22]: > 38 µM (not active)
- IC50 [23]: 12 µM (active)
- IC50 [24]: 57.4 µM (inactive)
- CC50 (Vero): > 40 µM (active)
- IC50 (Genome polyprotein): 21.4 µM (active)
- IC50 (Protein Tat): 54.4 µM (inconclusive)
- CC50 [25]: 29.6 µM (active)
- IC50 [26]: > 96.6 µM (inactive)

SMILES: C[C@@H]1CN([C@H](C)CO)C(=O)c2cc(N(C)C)ccc2O[C@@H](C)CCCCO[C@@H]1CN(C)S(=O)(=O)c1ccc(F)cc1
- AC50 [27]: 12.1 µM (active)

SMILES: Cc1ccc(CSCC(=O)c2cc(C)n(-c3ccc(OC(F)F)cc3)c2C)cc1
- EC50 [28]: 3.16 µM (active)

SMILES: COc1ccc(C2=C(NC(=O)c3cccc(Cl)c3)C(=O)c3ccccc3C2=O)cc1
- AC50 [29]: 24.1 µM (active)
- AC50 [30]: 18.2 µM (active)
